Reference: US8153637B2, “Phenyl-alkyl piperazines having TNF-modulating activity, preparation method, and therapeutic use thereof” (Sanofi, priority 2008, dated 2012)

Columns and labels:
[1] = tested on: Zymosan-induced knee joint inflammation / hyperalgesia; assay: Model of joint inflammation: Zymosan-induced knee joint inflammation, secondary hyperalgesia (plantar test); format: in vivo; conditions: male hamster, 1 ng/joint injected into the joint one hour before first Zymosan injection; 3 Zymosan injections; measured from 4 hours and during following 3 weeks
Protocol: The compounds of the invention are tested in a model of joint inflammation.
The compound (1 ng/joint as a suspension in 10 μL of a solution of 2% PVP (polyvinylpyrrolidone)/1% lutrol F68/0.9% NaCl) according to the invention is injected one hour before the first injection of Zymosan® (see below) into the joint of a hamster.
Induction of a knee joint inflammation: Under light anaesthesia using isofluran, a suspension of Zymosan® at a dose of 100 μg in 10 μL of saline solution is injected into the knee joint of a male hamster. Zymosan® is a yeast extract which produces a strong dose-dependent inflammation when subcutaneously injected. Under the experimental conditions described herein (injection into the knee joint), it induces a hyperalgesia lasting for a week. In order to extend this period, 3 consecutive injections of Zymosan® were applied. The lag time to paw withdrawal, following exposure of the plantar skin to a defined heat stimulus, is measured using apparatus (Plantar Test Ugo Basile Biological Research Apparatus, Comerio, Italy) comprising a mini-camera to ensure the correct positioning of the infrared ray below the hind leg of interest.
Measurement of Secondary Hyperalgesia:
The timer, which measures the length of time the infrared light is reflected by the hind leg, is started by the investigator and stops automatically as soon as the animal shakes or pulls away its leg. […]

TNF-α [2] = assay: Synthesis of TNF-α induced in Sprague-Dawley rats by LPS from Escherichia coli; format: in vivo; conditions: male Sprague-Dawley rats, oral administration; LPS i.v. 0.1 mg/Kg two hours later; serum TNF-α 1.5 hours after LPS
Protocol: The test products are administered orally to groups of ten male Sprague-Dawley rats weighing about 200 grams. Two hours later, LPS is administered intravenously (0.1 mg/Kg). The blood of each animal is collected 1.5 hours after the LPS administration. The samples are centrifuged, and the serum is recovered and frozen at −80° C. The TNF-α is measured using commercial kits (RPN 2744 Amersham, UK).

[3] = tested on: tactile allodynia after spare nerve injury; assay: Model of neuropathic pain: anti-allodynic effect in the spare nerve injury (SNI), von Frey test; format: in vivo; conditions: male C57B6 mice, 7 days after surgery, 1 mg/kg i.v., from 1 h to 6 h after administration
Protocol: The compounds of the invention are also tested in a model of neuropathic pain: measurement of the anti-allodynic effect in the spare nerve injury (SNI).
In this in vivo model of mice suffering from chronic neuropathic pain, the effect on tactile allodynia, a painful sensation induced after a mechanical stimulus not normally painful, is triggered in the hind leg by surgical lesion of the great sciatic nerve. It is then determined by measuring the paw withdrawal threshold (PWT), i.e. the applied force (expressed in grams) at which the mouse withdraws its hind leg.
Tactile allodynia is determined on both hind legs, i.e. homolaterally and controlaterally to the lesion determined following surgery, with the automatic von Frey test, in which the plantar skin of the hind legs is exposed to a pressure stimulus of increasing intensity reaching 5 grams, using a discharge needle prod. […]
Trial groups using the compounds according to the invention and a control group of animals were used, each being composed of four male C57B6 mice. In each group, the baseline of the PWT values (BL) was determined before surgery. […]
7 days after surgery, just before the administration of the compound, i.e. at 0 h, and in all the groups, the PWT values were determined for the homolateral hind leg (injured) and the controlateral hind leg (non-injured). […]

TNF-α [4] = assay: Synthesis of TNF-α induced in Balb/c mice by LPS from Escherichia coli; format: in vivo; conditions: female Balb/c mice, oral administration; LPS i.v. 10 μg/mouse one hour later; plasma TNF-α 1.5 hours after LPS
Protocol: The test products are administered orally to groups of five 7- to 8-week-old female Balb/c mice (Charles River, France). One hour later, LPS is administered intravenously (10 μg/mouse). The blood of each animal is collected 1.5 hours after the LPS administration. The samples are centrifuged, and the plasma is recovered and frozen at −80° C. The TNF-α is measured using commercial kits (R & D, Abingdon, UK).

SMILES	melting point	also measured
CCCCCc1cc(CCN2CCN(c3cccc(OC)c3)CC2)ccc1C.Cl	199 to 201 °C	–
CCCCCc1cc(CCN2CCN(c3cccc(C(F)F)c3)CC2)ccc1OC.Cl	125 to 128 °C	–
CCCCCCCc1cc(CCN2CCN(c3cccc(C(F)(F)F)c3)CC2)ccc1OC.Cl	214 °C	–
CCCCCCc1cc(CCN2CCN(c3cccc(C(F)(F)F)c3)CC2)ccc1C.Cl	187 °C	–
CCCc1cc(CCN2CCN(c3cccc(C(F)(F)F)c3)CC2)ccc1OC.Cl	184 to 185 °C	–
CCCCCc1cc(CCN2CCN(c3ccc(Cl)cc3)CC2)ccc1C.Cl	203 °C	–
CCCCCc1cc(CCN2CCN(c3cccc(C(F)(F)F)c3)CC2)ccc1OC.Cl	146 to 149 °C	–
CCCCCc1cc(CCN2CCN(c3ccc(F)cc3)CC2)ccc1C.Cl.Cl	> 201 °C	–
CCCCCc1cc(CCN2CCN(c3ccc(Br)cn3)CC2)ccc1C.Cl.Cl	190 to 192 °C	–
CCCCCc1cc(CCN2CCN(c3ccc(C(F)(F)F)cn3)CC2)ccc1C.Cl.Cl	> 212 °C	–
CCCCCc1cc(CCN2CCN(c3ccc(C(C)(C)C)cc3)CC2)ccc1C.Cl	193 to 195 °C	–
CCCCCc1cc(CCN2CCN(c3ccc(OCC)cc3)CC2)ccc1C.Cl.Cl	228 to 230 °C	–
CCCCCc1cc(CCN2CCN(c3cccc(C)c3)CC2)ccc1C.Cl.Cl	226 to 228 °C	–
CCCc1cc(CCN2CCN(c3cccc(C(F)(F)F)c3)CC2)ccc1C.Cl	198 to 200 °C	–
CCCCCc1cc(CCN2CCN(c3ccccn3)CC2)ccc1C.Cl.Cl	183 to 185 °C	–
CCCCCc1cc(CCN2CCN(c3cccc(Br)n3)CC2)ccc1C.Cl	185 to 187 °C	–
CCCCCc1cc(CCN2CCN(c3ccccc3Cl)CC2)ccc1C.Cl	200 to 202 °C	–
CCCCCc1cc(CCN2CCN(c3ccccc3C)CC2)ccc1C.Cl	220 to 222 °C	–
CCCCCc1cc(CCN2CCN(c3cccc(OC(F)(F)F)c3)CC2)ccc1C.Cl	197 to 200 °C	–
CCCCCc1cc(CCN2CCN(c3ccc(Cl)cn3)CC2)ccc1C.Cl	199 to 201 °C	–
CCCCCCCc1cc(CCN2CCN(c3cccc(C(F)(F)F)c3)CC2)ccc1C.Cl	190 to 192 °C	–
CCCCCc1cc(CCN2CCN(c3cccc(C(F)(F)F)n3)CC2)ccc1C.Cl	161 to 163 °C	–
CCCCCc1cc(CCN2CCN(c3cccc(F)c3)CC2)ccc1OC.Cl	174 to 177 °C	–
CCCCCc1cc(CCN2CCN(c3ccccc3)CC2)ccc1C.Cl	200 to 202 °C	–
CCCCCc1cc(CCN2CCN(c3cccc(C(F)(F)F)c3)CC2)ccc1C.CCCCCc1cc(CCN2CCN(c3cccc(C(F)(F)F)c3)CC2)ccc1C.O=C(O)c1cc2ccccc2c(Cc2c(O)c(C(=O)O)cc3ccccc23)c1O [compound 1, 1-(3-trifluoromethylphenyl)-4-[2-(4-methyl-3-pentylphenyl)ethyl]piperazine hemipamoate]	–	reduction of pain (lag time to leg withdrawal, secondary hyperalgesia) [1]: effective reduction of pain over a 3-week period; IC50, inhibiting the synthesis of TNF-α (TNF-α [2]): 0.3 mg/kg; reduction of pain (anti-allodynic effect, paw withdrawal threshold PWT) [3]: statistically significant reduction of pain
CCCCCc1cc(CCN2CCN(c3cccc(F)c3)CC2)ccc1C.Cl [compound 4, 1-(3-fluorophenyl)-4-[2-(4-methyl-3-pentylphenyl)ethyl]-piperazine hydrochloride]	215 to 217 °C	IC50, inhibiting the synthesis of TNF-α (TNF-α [2]): 1 mg/kg
CCCCCc1cc(CCN2CCN(c3cccc(C(F)F)c3)CC2)ccc1C.Cl [compound 8, 1-(3-difluoromethylphenyl)-4-[2-(4-methyl-3-pentylphenyl)-ethyl]piperazine hydrochloride]	182 to 185 °C	IC50, inhibiting the synthesis of TNF-α (TNF-α [2]): 1 mg/kg
CCCCCc1cc(CCN2CCN(c3cccc(C(F)(F)F)c3)CC2)ccc1C.O=C(O)CCC(=O)O [compound 38, 1-(3-trifluoromethylphenyl)-4-[2-(4-methyl-3-pentyl-phenyl)ethyl]piperazine succinate]	–	IC50, inhibiting the synthesis of TNF-α (TNF-α [4]): 0.1 mg/kg
